Laboratory results published in ChEMBL document CHEMBL3414535, “Identification and optimization of Escherichia coli GlmU inhibitors: an in silico approach with validation thereof” (Eur J Med Chem, 2015).

Biological target: Bifunctional protein GlmU (Escherichia coli (strain K12)) (UniProt P0ACC7)
Assay: Inhibition of Escherichia coli GlmU acetyltransferase activity assessed as coenzyme A production using acetyl CoA substrate at 100 uM

Bifunctional protein GlmU (Escherichia coli (strain K12)), sequence (P0ACC7 whole entry, looked up): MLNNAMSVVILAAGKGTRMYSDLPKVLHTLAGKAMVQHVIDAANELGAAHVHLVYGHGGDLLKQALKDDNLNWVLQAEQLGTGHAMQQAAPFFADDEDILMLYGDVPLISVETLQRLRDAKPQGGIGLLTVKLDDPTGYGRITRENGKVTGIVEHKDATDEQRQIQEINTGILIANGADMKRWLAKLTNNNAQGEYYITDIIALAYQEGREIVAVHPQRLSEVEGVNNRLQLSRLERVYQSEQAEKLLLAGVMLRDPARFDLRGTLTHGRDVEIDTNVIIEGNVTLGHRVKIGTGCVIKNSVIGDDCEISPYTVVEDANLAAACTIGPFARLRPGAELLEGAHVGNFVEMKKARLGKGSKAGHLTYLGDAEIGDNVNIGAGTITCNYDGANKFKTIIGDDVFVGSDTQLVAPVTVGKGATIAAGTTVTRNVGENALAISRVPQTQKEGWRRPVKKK

Row | SMILES | inhibition [%]
1 | CC(C)C(=O)N1CCCc2cc(NS(=O)(=O)c3cccc(F)c3)ccc21 | 82.9
2 | Cc1cc(S(=O)(=O)C(CNC(=O)c2ccco2)c2ccco2)ccc1F (centres undefined) | 12.6
3 | COc1ccc(-c2cnc(C)o2)cc1S(=O)(=O)Nc1cccc(F)c1 | 36
4 | COCCNC(=O)c1ccccc1NS(=O)(=O)c1ccc2c(c1)OCCO2 | 12
5 | O=C(Nc1nonc1-c1ccccc1)C1COc2ccccc2O1 (centres undefined) | 17.5
6 | COc1ccc(C2SCC(=O)Nc3[nH]nc(C)c32)c(OC)c1OC (centres undefined) | 20.5
7 | O=C(CN1c2ccc(F)cc2-c2ccccc2S1(=O)=O)Nc1cccnc1 | 19.8

Continued, values first:

Row | inhibition [%] | SMILES
8 | 9.41 | CCOC(=O)CC1(c2ccccc2)SC(NC(C)=O)=NN1C(C)=O (centres undefined)
9 | 11.1 | Cc1ccc(S(=O)(=O)n2ccn(C(=O)C(C)Oc3ccccc3)c2=O)cc1 (centres undefined)
10 | 44.7 | O=S(=O)(NCc1cccnc1)c1ccc(-c2ccno2)o1
11 | 21.1 | CCn1c(C)c(-c2nc(C3CC3)no2)c(S(=O)(=O)NCC2CCCO2)c1C (centres undefined)
12 | 11.9 | CCOC(=O)c1cc(S(=O)(=O)N(C)CC(=O)Nc2ccc(F)cc2)cn1C

Biological target: Bifunctional protein GlmU (Escherichia coli (strain K12), UniProt P0ACC7)
Assay: Inhibition of Escherichia coli GlmU acetyltransferase activity assessed as coenzyme A production using acetyl CoA substrate

Bifunctional protein GlmU, sequence (P0ACC7 whole entry): as the sequence (P0ACC7 whole entry, looked up) above

Row | SMILES | IC50 [µM]
13 | COc1cc(OC)c(S(=O)(=O)N2c3ccccc3CC[C@@H]2C)cc1NC(=O)COCC(=O)O | 0.2
14 | COc1cc(OC)c(S(=O)(=O)N(c2ccccc2)c2ccccc2)cc1NC(=O)CCC(=O)O | 0.04
15 | COc1cc(OC)c(S(=O)(=O)NCc2ccccc2N2CCC(COC(=O)CCC(=O)O)CC2)cc1NC(=O)CCC(=O)O | 0.25
16 | COc1cc(O)c(S(=O)(=O)N2c3ccccc3CC[C@H]2C)cc1NC(=O)CCC(=O)O | 0.05
17 | COc1cc(OC)c(S(=O)(=O)N2c3ccccc3Oc3ccccc32)cc1NC(=O)Cc1ccncc1 | 0.06
18 | COc1cc(O)c(S(=O)(=O)N2c3ccccc3CC[C@H]2C)cc1NC(=O)[C@H]1[C@H](C)[C@H]1C(=O)O | 0.48
19 | COc1cc(OC)c(S(=O)(=O)N2c3ccccc3CC[C@H]2C)cc1NC(C)=O | 1.5
20 | COc1cc(OC)c(S(=O)(=O)NCc2ccc3c(c2)OCO3)cc1NC(C)=O | 200
21 | COc1cc(OC)c(S(=O)(=O)N2c3ccccc3CC[C@H]2C)cc1NC(=O)CSc1ccncc1 | 1
22 | COc1cc(OC)c(S(=O)(=O)Nc2cccc(C)c2)cc1NC(C)=O | 17
23 | COc1cc(OC)c(S(=O)(=O)N2c3ccccc3CC[C@H]2C)cc1NC(=O)COC(C)=O | 2
24 | COc1cc(OC)c(S(=O)(=O)Nc2ccc(F)cc2)cc1NC(C)=O | 25
25 | COc1cc(OC)c(S(=O)(=O)Nc2ccccc2F)cc1NC(C)=O | 5
26 | COc1ccccc1CNS(=O)(=O)c1cc(NC(C)=O)c(OC)cc1OC | 10
27 | COc1cc(OC)c(S(=O)(=O)N2CCCC[C@@H]2C)cc1NC(C)=O | 130
28 | COc1cc(OC)c(S(=O)(=O)N2c3ccccc3Oc3ccccc32)cc1NC(=O)[C@H]1[C@@H](C)[C@H]1C(=O)O | 0.03
29 | COc1cc(OC)c(S(=O)(=O)NCc2ccccc2CC(=O)O)cc1NC(C)=O | 15
30 | COc1cc(OC)c(S(=O)(=O)N2c3ccccc3CC[C@H]2C)cc1NS(C)(=O)=O | 100
31 | COc1cc(OC)c(S(=O)(=O)N2c3ccccc3Sc3ccccc32)cc1NC(=O)CCC(=O)O | 0.09

Continued, values first:

Row | IC50 [µM] | SMILES
32 | 0.04 | COc1cc(OC)c(S(=O)(=O)N(c2ccc(C)cc2)c2ccc(C)cc2)cc1NC(=O)CCC(=O)O
33 | 0.01 | COc1cc(OC)c(S(=O)(=O)N2c3ccccc3Oc3ccccc32)cc1NC(=O)CCC(=O)O
34 | 3 | COc1cc(OC)c(S(=O)(=O)NCc2ccccc2N2CCC(CO)CC2)cc1NC(=O)CCC(=O)O
35 | 0.1 | COc1cc(OC)c(S(=O)(=O)N2c3ccccc3CC[C@H]2C)cc1NC(=O)CSCC(=O)O
36 | 0.02 | COc1cc(OC)c(S(=O)(=O)N(c2ccccc2)c2ccc(N)cc2)cc1NC(=O)CCC(=O)O
37 | 0.43 | COc1cc(OC)c(S(=O)(=O)N2c3ccccc3CC[C@@H]2C)cc1NC(=O)CCc1nn[nH]n1
38 | 0.01 | COc1cc(OC)c(S(=O)(=O)N2c3ccccc3Oc3ccccc32)cc1NC(=O)/C=C/C(=O)O
39 | 200 | COc1cc(OC)c(S(=O)(=O)N2CCC[C@H]2C)cc1NC(C)=O
